Experimental data as given in PubChem BioAssay (NCI).
Several values for one entry are separate records, joined by “and”; a condition that tells them apart may be missing. Identical values can stand only once.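 Exposure lasted 48 hours, with cells grown in 96-well plates and compounds tested at five concentrations. Here, GI50 denotes the concentration required for 50% inhibition of growth. Definition used: TGI = concentration required for complete inhibition of growth.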

Assays:
Assay in all cases: NCI tumour cell line growth inhibition, 48 h
SK-MEL-2 melanoma = test system: SK-MEL-2 melanoma
SN12C renal = test system: SN12C renal
ACHN renal = test system: ACHN renal
SF-268 CNS = test system: SF-268 CNS
SK-OV-3 ovarian = test system: SK-OV-3 ovarian
CAKI-1 renal = test system: CAKI-1 renal
HOP-62 NSCLC = test system: HOP-62 NSCLC
RPMI-8226 leukemia = test system: RPMI-8226 leukemia

## O=C1NC(=O)[C@@]2(CC[C@@H](O)C2)c2ccncc21
SK-MEL-2 melanoma
  TGI: > 100 µM
SN12C renal
  TGI: > 100 µM
ACHN renal
  TGI: > 100 µM
SF-268 CNS
  TGI: > 100 µM
SK-OV-3 ovarian
  TGI: > 100 µM
CAKI-1 renal
  TGI: > 100 µM

## O=C(O)C(Br)C(Br)C(=O)O (stereo not given)
SK-MEL-2 melanoma
  TGI: > 100 µM
SN12C renal
  TGI: > 100 µM
HOP-62 NSCLC
  TGI: > 100 µM
ACHN renal
  TGI: > 100 µM
SF-268 CNS
  TGI: > 100 µM
RPMI-8226 leukemia
  TGI: > 100 µM
SK-OV-3 ovarian
  TGI: > 100 µM
CAKI-1 renal
  TGI: > 100 µM

## CN(C)C[C@H]1CCn2c(c(C3=C(c4cn(C)c5ccccc45)C(=O)NC3=O)c3ccccc32)C1
SK-MEL-2 melanoma
  GI50: 4.97 µM
  TGI: 9.23 µM
SN12C renal
  GI50: 4.39 µM
  TGI: 9.66 µM
HOP-62 NSCLC
  GI50: 4.57 µM
  TGI: 8.58 µM
ACHN renal
  GI50: 4.3 µM
  TGI: 9.87 µM
SF-268 CNS
  GI50: 4.71 µM
  TGI: 9.04 µM
RPMI-8226 leukemia
  GI50: 4.88 µM
  TGI: 10.5 µM
SK-OV-3 ovarian
  GI50: 5.17 µM
  TGI: 11.5 µM
CAKI-1 renal
  GI50: 3.82 µM
  TGI: 8.74 µM

## COc1cc(OC)cc(-c2nc3sccn3c2/C=N/N=C(N)N)c1
SK-MEL-2 melanoma
  GI50: 16.7 µM
  TGI: > 50 µM
SN12C renal
  GI50: 7 µM
  TGI: 13.6 µM
HOP-62 NSCLC
  GI50: 9.95 µM
  TGI: 17 µM
ACHN renal
  GI50: 8.58 µM
  TGI: 17.5 µM
SF-268 CNS
  GI50: 10.2 µM
  TGI: 27.2 µM
RPMI-8226 leukemia
  GI50: 10.7 µM
  TGI: 21.6 µM
SK-OV-3 ovarian
  GI50: 7.28 µM
  TGI: 15.5 µM
CAKI-1 renal
  GI50: 8.03 µM
  TGI: 15.2 µM

## CC(=O)O[C@@]12CO[C@@H]1C[C@H](O)[C@@]1(C)C(=O)[C@H](O)C3=C(C)[C@@H](OC(=O)[C@H](O)[C@@H](NC(=O)OC(C)(C)C)c4ccccc4)C[C@@](O)([C@@H](OC(=O)c4ccccc4)C12)C3(C)C (stereo not given in full)
SK-MEL-2 melanoma
  GI50: 0.0355 µM
  TGI: > 100 µM
SN12C renal
  GI50: < 0.005 µM
  TGI: 50 µM
HOP-62 NSCLC
  GI50: < 0.005 µM
  TGI: 50 µM and > 100 µM
ACHN renal
  TGI: 50 µM and > 100 µM
SF-268 CNS
  TGI: 81.5 µM
RPMI-8226 leukemia
  GI50: < 0.005 µM
  TGI: 34 µM and 24.5 µM
SK-OV-3 ovarian
  GI50: < 0.005 µM
  TGI: 50 µM and 72.6 µM
CAKI-1 renal
  GI50: 0.225 µM and 0.181 µM
  TGI: 50 µM and 73.6 µM

## Cc1c(NC(=O)CCl)c(=O)oc2c(C)c3occc(=O)c3cc12
HOP-62 NSCLC
  TGI: 29.8 µM
ACHN renal
  TGI: 80.5 µM
SF-268 CNS
  TGI: 25.9 µM
RPMI-8226 leukemia
  TGI: 60.1 µM
SK-OV-3 ovarian
  TGI: 32.8 µM
CAKI-1 renal
  TGI: 25.3 µM

## CCOc1cc(C(=O)O)c2c(ccc3ccc(OC)c(OC)c32)c1OC
SK-MEL-2 melanoma
  TGI: > 100 µM
SN12C renal
  TGI: > 100 µM
HOP-62 NSCLC
  TGI: > 100 µM
ACHN renal
  TGI: > 100 µM
SF-268 CNS
  TGI: > 100 µM
RPMI-8226 leukemia
  TGI: > 100 µM
SK-OV-3 ovarian
  TGI: > 100 µM
CAKI-1 renal
  TGI: > 100 µM

## CCC[CH2][Sn]([CH2]CCC)([CH2]CCC)[O]C(=O)C(OC(C)=O)c1ccccc1 (stereo not given)
SN12C renal
  GI50: 0.144 µM
  TGI: 0.275 µM
HOP-62 NSCLC
  GI50: 0.149 µM
  TGI: 0.287 µM
ACHN renal
  GI50: 0.143 µM
  TGI: 0.274 µM
SF-268 CNS
  GI50: 0.138 µM
  TGI: 0.368 µM
RPMI-8226 leukemia
  GI50: 0.0212 µM
  TGI: 0.298 µM
SK-OV-3 ovarian
  GI50: 0.12 µM
  TGI: 0.273 µM
CAKI-1 renal
  GI50: 0.159 µM
  TGI: 0.3 µM

## Cc1ccc(-c2c(C#N)[n+](=O)c3cc(F)c(F)cc3n2[O-])cc1
SN12C renal
  GI50: 2.61 µM
  TGI: 8.56 µM
HOP-62 NSCLC
  GI50: 5.26 µM
  TGI: 19.7 µM
ACHN renal
  GI50: 2.2 µM
  TGI: 5.83 µM
SF-268 CNS
  GI50: 14.3 µM
  TGI: 30 µM
RPMI-8226 leukemia
  GI50: 1.49 µM
  TGI: 6.99 µM
CAKI-1 renal
  GI50: 2.48 µM
  TGI: 5.74 µM

## C=C1C(=O)O[C@H]2[C@H]1CC/C(COC(=O)c1cn(C)c3ccccc13)=C\CC[C@@]1(C)O[C@@H]21
SK-MEL-2 melanoma
  GI50: 1.38 µM
  TGI: 2.82 µM
SN12C renal
  GI50: 0.719 µM
  TGI: 2.3 µM
HOP-62 NSCLC
  GI50: 1.81 µM
  TGI: 3.76 µM
ACHN renal
  GI50: 0.828 µM
  TGI: 2.09 µM
SF-268 CNS
  GI50: 1.3 µM
  TGI: 2.86 µM
RPMI-8226 leukemia
  GI50: 0.217 µM
  TGI: 0.665 µM
SK-OV-3 ovarian
  GI50: 4.33 µM
  TGI: 15 µM

## C/C(=N\NC(=O)CC#N)C(CN1CCCCC1)C(c1ccccc1)c1c(O)c2ccccc2oc1=O (stereo not given)
SK-MEL-2 melanoma
  TGI: > 100 µM
ACHN renal
  TGI: > 100 µM
SF-268 CNS
  TGI: > 100 µM
RPMI-8226 leukemia
  TGI: > 100 µM
SK-OV-3 ovarian
  TGI: > 100 µM
CAKI-1 renal
  TGI: > 100 µM

## C=C(C)[C@@H]1C/C=C(/CO)CC[C@H]2O[C@]2(C)CC/C=C(\C)CC1
SK-MEL-2 melanoma
  GI50: 15.3 µM
  TGI: 31.3 µM
SN12C renal
  GI50: 14.6 µM
  TGI: 29 µM
HOP-62 NSCLC
  GI50: 15 µM
  TGI: 34.4 µM
ACHN renal
  GI50: 29.5 µM
  TGI: > 100 µM
SF-268 CNS
  GI50: 19.9 µM
  TGI: 38.2 µM
CAKI-1 renal
  GI50: 17.1 µM
  TGI: 34.8 µM

## Nc1ncnc2c1c(-c1ccc(Oc3ccccc3)cc1)nn2C[C@H]1SSC[C@@H]1O
SK-MEL-2 melanoma
  GI50: 0.262 µM
  TGI: 2.33 µM
SN12C renal
  GI50: 1.36 µM
  TGI: 13.2 µM
HOP-62 NSCLC
  GI50: 0.26 µM
  TGI: 3.15 µM
ACHN renal
  GI50: 0.482 µM
  TGI: 9.3 µM
RPMI-8226 leukemia
  GI50: 4.2 µM
  TGI: 20.4 µM
SK-OV-3 ovarian
  GI50: 0.593 µM
  TGI: 3.71 µM
CAKI-1 renal
  GI50: 1.62 µM
  TGI: 12.7 µM

## COc1cc2c3c(n(CCCCNC(=O)OC(C)(C)C)c(=O)c2cc1OC)-c1cc2c(cc1C3=O)OCO2
SK-MEL-2 melanoma
  GI50: > 100 µM
  TGI: > 100 µM
SN12C renal
  GI50: 78 µM
  TGI: > 100 µM
HOP-62 NSCLC
  GI50: 28.1 µM
  TGI: > 100 µM
ACHN renal
  GI50: 20.1 µM
  TGI: > 100 µM
SF-268 CNS
  GI50: 15.3 µM
  TGI: > 100 µM
SK-OV-3 ovarian
  GI50: > 100 µM
  TGI: > 100 µM
CAKI-1 renal
  GI50: 3.45 µM
  TGI: 74.5 µM

## CCCCC[C@H]1CC=C2C(=O)C=C[C@@H]2CC=CCCCC(=O)O[C@@H](CCCCC)CC=C2C(=O)C=C[C@@H]2CC=CCCCC(=O)O[C@@H](CCCCC)CC=C2C(=O)C=C[C@@H]2CC=CCCCC(=O)O1
SK-MEL-2 melanoma
  GI50: 0.281 µM
  TGI: 0.969 µM
SN12C renal
  GI50: 0.277 µM
  TGI: > 8.75 µM
HOP-62 NSCLC
  GI50: 0.259 µM
  TGI: 0.775 µM
ACHN renal
  GI50: 0.438 µM
  TGI: > 8.75 µM
SF-268 CNS
  GI50: 0.305 µM
  TGI: 7.8 µM
RPMI-8226 leukemia
  GI50: 0.256 µM
  TGI: 0.821 µM
SK-OV-3 ovarian
  GI50: 1.62 µM
  TGI: > 8.75 µM

## Cc1cn(CCC(N)C(=O)O)c(=O)[nH]c1=O (stereo not given)
SK-MEL-2 melanoma
  TGI: > 100 µM
SN12C renal
  TGI: > 100 µM
HOP-62 NSCLC
  TGI: > 100 µM
ACHN renal
  TGI: > 100 µM
SF-268 CNS
  TGI: > 100 µM
RPMI-8226 leukemia
  TGI: > 100 µM
SK-OV-3 ovarian
  TGI: > 100 µM

## COc1cc(-c2nn(-c3cccc(NC(=O)NCCNS(=O)(=O)c4ccc(Cl)cc4)c3)cc2-c2ccncc2)ccc1Cl
SK-MEL-2 melanoma
  GI50: 0.629 µM
  TGI: 2.81 µM
SN12C renal
  GI50: 1.19 µM
  TGI: 13.2 µM
HOP-62 NSCLC
  GI50: 1.08 µM
  TGI: 33 µM
ACHN renal
  GI50: 2.69 µM
  TGI: 11.8 µM
SF-268 CNS
  GI50: 0.792 µM
  TGI: 4.39 µM
SK-OV-3 ovarian
  GI50: 1.85 µM
  TGI: 17.5 µM

## O=C(Nc1ccc2ncnc(Nc3ccc(Oc4cccc(F)c4)c(Cl)c3)c2c1)c1ccc(CN2CCOCC2)cc1
SK-MEL-2 melanoma
  GI50: 2.27 µM
  TGI: 5.46 µM
SN12C renal
  GI50: 2.6 µM
  TGI: > 100 µM
HOP-62 NSCLC
  GI50: 2.58 µM
  TGI: 8.47 µM
ACHN renal
  GI50: 2.26 µM
  TGI: 9.55 µM
SF-268 CNS
  GI50: 2.6 µM
  TGI: 18.1 µM
SK-OV-3 ovarian
  GI50: 1.66 µM
  TGI: > 100 µM
CAKI-1 renal
  GI50: 2.18 µM
  TGI: 10.5 µM

## CCN(CC)CCCOc1ccc2ncnc(Nc3ccc(Oc4cccc(C(F)(F)F)c4)c(Cl)c3)c2c1
SN12C renal
  GI50: 1.34 µM
  TGI: 2.69 µM
ACHN renal
  GI50: 1.07 µM
  TGI: 2.26 µM
SF-268 CNS
  GI50: 1.44 µM
  TGI: 3.07 µM
CAKI-1 renal
  GI50: 1.4 µM
  TGI: 3.1 µM
